The results in this text go back to publication PMC5384777, “Three new C-27-carboxylated-lupane-triterpenoid derivatives from Potentilla discolor Bunge and their in vitro antitumor activities” (PLoS ONE, 2017).

“And” between values parts separate entries of the source, which are not always exact repeats. Identical values can stand only once. Like-named read-outs stand apart in the source and are kept apart here. Some results are limits rather than exact numbers.

Data set [1] relates to HepG-2. The data set can be described thus: CCK-8 cytotoxicity assay, HepG-2. As to conditions: for IC50: Homo sapiens, read-out: Cytotoxicity (IC50) HepG-2. In kind it is cell-based, human. How it is done:
(§1) The cytotoxic effects of Compounds 1–3 were estimated in vitro against HepG-2, MCF-7 and T-84 tumor cell lines by Cell Counting Kit-8 assay. Briefly, the cells were seeded into 96-well plates in triplicate at an initial number of 5,000 cells per well and cultured at 37°C, 5% CO2 for 24h, then treated with 0, 15, 20, 25, 30 μM of samples for another 24h. Ten microliters of the kit reagent was added to each well, and 2 h after all plates were scanned by a microplate reader (Thermo Fisher Scientific) at 450 nm. Cell cytotoxicity was calculated on the basis of absorbency.
(Formazan colour is commonly taken as a measure of viable cells.)

The subject of data set [2] is MCF-7. The data set is described as follows: CCK-8 cytotoxicity assay, MCF-7. In kind it is cell-based. As to conditions: Homo sapiens, read-out: Cytotoxicity (IC50) MCF-7. How it is done: as §1
In data set [3] the test system is T-84. The data set is described as follows: CCK-8 cytotoxicity assay, T-84. The note with it: Homo sapiens, read-out: Cytotoxicity (IC50) T-84. In kind it is cell-based. As for the experimental part:
as §1

A short description of data set [4]: in vitro. It counts as cell-based. The note with it: human. As for the experimental part:
as §1

Data set [5] concerns HepG-2 cells. The data set is described as follows: Annexin V-FITC/propidium iodide apoptosis analysis. It counts as cell-based, human. As to conditions: 24 h. How it is done:
The method for apoptosis analysis referred to the literature. Apoptosis was discriminated with the annexin V-FITC/propidium iodide test. Cells were seeded at 3 × 10^5/well in 10% FBS-DMEM into 6-well plates, and treated with Compound 1 with various concentrations. The cells were washed twice with cold Phosphate Buffered Saline (PBS) and then resuspended in 1 × Binding Buffer (0.1 M Hepes/NaOH (pH 7.4), 1.4 M NaCl, 25 mM CaCl2) at a concentration of 1 × 10^6 cells/mL. 100 μL of the solution (1 × 10^5 cells) was transferred to a 5 mL culture tube, and 5 μL of FITC Annexin V (BD, Pharmingen) and 5 μL of propidium iodide (PI) were added to each tube. The cells were gently vortexed and incubated at 25°C for 15 min in the dark. Then 200 μL of PBS was added to each tube. Analysis was performed with the system software (Cell Quest; BD Biosciences). The percentage of cells positive for PI and/or Annexin V-FITC was reported inside the quadrants. Lower left quadrant, viable cells (annexin V-/PI-); lower right quadrant, early apoptotic cells (annexin V+/PI-); upper right quadrant, late apoptotic cells (annexin V+/PI+); upper left quadrant, necrotic cells (annexin V-/PI+).

Data set [6] deals with HepG-2 cells. The data set can be described thus: Intracellular ROS assay (DCFH-DA). It counts as cell-based, human. The note with it: 24 h, control 10.6%. How it is done: HepG-2 cells were seeded into 6-well plates for 24 h and subjected to various treatments. Then, the cells were cultured in a […] medium solution containing […] DCFH-DA (Beyotime, Haimen, China) at 37°C for 30 min in dark, and then with 3 times PBS washes. Cellular fluorescence was quantified under Nikon ECLIPSETE2000-S fluorescence microscope at 485 nm excitation and 538 nm emission.

Data set [7] has as its system HepG-2 cells. The data set can be described thus: Mitochondrial membrane potential (JC-1) staining. It counts as cell-based, human. The note with it: 15 μM, 24 h.
The test system of data set [8] is cytochrome c. The data set can be described thus: Western blot, cytochrome c. The note with it: HepG-2, 0, 15 and 30 μM, 24 h. In kind it is cell-based, human. How it is done: (§2) HepG-2 cells were collected after treatments with Compound 1 (0, 15 and 30 μM) for 24 h and then lysed in ice-cold RIPA buffer (1×PBS, 1% NP-40, 0.5% sodium deoxycholate and 0.1% SDS) which containing 100 μg/mL PMSF, 5 μg/mL Aprotinin, 5 μg/mL Leupeptin, 5 μg/mL Pepstatin and 100 μg/mL NaF. After centrifugation at 12,000 rpm for 10 min, the protein in the supernatant was quantified by the Bradford method using Multimode varioscan instrument (Thermo Fischer Scientifics). 30 μg protein per lane was applied in 12% SDS polyacrylamide gel. After electrophoresis, the protein was transferred to a polyvinylidine difluoride (PVDF) membrane (Amersham Biosciences). The membrane was blocked in TBST containing 5% blocking powder (Santacruz) at room temperature for 2 h. The membrane was washed with TBST for 5 min, and primary antibody (Bax, Bcl-2, cytochrome c, caspase-9, -3) was added and incubated at 4°C overnight (O/N). After three washes in TBST, the membrane was cultivated with corresponding horseradish peroxidase-labeled secondary antibody (1:20000) (Santa Cruz) at room temperature for 1 h. Membranes were rinsed with TBST for three times, 15 min each, and the protein blots were visualized with chemiluminescence reagent (Thermo Fischer Scientifics Ltd.). The X-ray films were developed with developer and fixed with fixer solution.

The test system of data set [9] is Bax. The data set is described as follows: Western blot, Bax. It counts as cell-based, human. The note with it: HepG-2, 15 and 30 μM, 24 h, compared with control. As for the experimental part: as §2
For orientation: Immunoblotting shows a protein as a band on a membrane.

The subject of data set [10] is Bcl-2. The data set can be described thus: Western blot, Bcl-2. In kind it is cell-based, human. The note with it: HepG-2, 15 and 30 μM, 24 h, compared with control. As for the experimental part:
as §2

Data set [11] relates to caspase-9. The data set is described as follows: Western blot, caspase-9. In kind it is cell-based, human. The note with it: HepG-2, 15 and 30 μM, 24 h. As for the experimental part: as §2
Data set [12] relates to caspase-3. The data set can be described thus: Western blot, caspase-3. It counts as cell-based, human. As to conditions: HepG-2, 15 and 30 μM, 24 h. As for the experimental part:
as §2

In data set [13] the test system is HepG-2 cells. The data set can be described thus: Hoechst 33258 staining. It counts as cell-based, human. The note with it: 15 and 30 μM, 24 h. How it is done: HepG-2 cells grown on a sterile cover slip in 6-well plates were treated with Compound 1 for 24 h. The culture medium containing Compound was removed, and the cells were fixed in 4% paraformaldehyde for 10 min. After two PBS washes, the cells were stained with 0.5 mL of Hoechst 33258 (Beyotime, Haimen, China) for 5 min and again two PBS washes. The stained nuclei were viewed using a Nikon ECLIPSETE2000-S fluorescence microscope (OLYMPUS Co., Japan) under 350 nm excitation and 460 nm emissions.

Data set [14] has as its system HepG-2 cells. The data set is described as follows: AO/EB staining. In kind it is cell-based, human. As to conditions: 15 and 30 μM, 24 h. As for the experimental part:
HepG-2 cells were seeded on a sterile cover slip in 6-well tissue culture plates at a concentration of 5 ×10^4 cell/mL in a volume of 2 mL. Following incubation, the medium was removed and replaced with fresh medium plus 10% fetal bovine serum and supplemented with concentrations of Compound 1 for 24 h. After the treatment period, the cover slip with monolayer cells was inverted on a grass slide with 10 μL of AO/EB stain ([…]). Fluorescence was read on a Nikon ECLIPSETE2000-S fluorescence microscope.

In the case of `CC(=O)OC1CCC2(C)C(CCC3(C)C2CCC2C4C(C(C)C=O)CCC4(C)CCC23C(=O)O)C1(C)C` (stereo not drawn) [Compound 3, 3α-acetyl-19α-hydrogen-29-aldehyde-27-lupanoic acid], the melting point (in general, the temperature of the solid-liquid transition) was 200 to 201 °C. In addition, in data set [1] (HepG2, 24 h), the IC50 (in general, the concentration that gives 50% inhibition) was 25.3 ± 1.87 µM. The IC50 in [2] (MCF7, 24 h) was determined as 35.4 ± 1.52 µM. The IC50 in data set [3] (T84, 24 h) came out at 40.6 ± 3.64 µM.
Regarding `O=C1CCC[C@@H]2[C@H]3CCCN4CCC[C@@H](CN12)[C@@H]34` [Matrine, reference compound], the half-inhibitory concentration (IC50) is 30.9 ± 2.28 µM in [1] (HepG2, CCK-8, 24 h treatment, n = 3); 35.5 ± 2.92 µM in data set [2] (MCF7, CCK-8, 24 h treatment, n = 3); 32.8 ± 2.95 µM in [3] (T84, CCK-8, 24 h treatment, n = 3).
Take `CC(C=O)[C@@H]1CC[C@]2(C)CC[C@]3(C(=O)O)C(CCC4[C@@]5(C)CC[C@@H](O)C(C)(C)C5CC[C@]43C)C12` (stereo partly drawn) [Compound 2, 3α-hydroxy-19β-hydrogen-29-aldehyde-27-lupanoic acid]: the IC50 in [1] (HepG2, 24 h) worked out at 18.2 ± 1.94 µM; in data set [2] (MCF7, 24 h), 31 ± 1.83 µM; in data set [3] (T84, 24 h) it was 27.9 ± 0.99 µM.
On to `CC(C=O)C1CCC2(C)CCC3(C(=O)O)C(CCC4C5(C)CCC(O)C(C)(C)C5CCC43C)C12` (stereo not drawn) [Compound 1, 3α-hydroxy-19α-hydrogen-29-aldehyde-27-lupanoic acid], for which the melting point was 200 to 201 °C and 201 to 202 °C. The “survival rate of HepG-2” value in data set [1] (35 μM) turned out to be 9.50%. Besides, the IC50 in data set [1] (HepG2, 24 h) amounted to 17.8 ± 1.21 µM. Moreover, the IC50 in data set [2] (MCF7, 24 h) came to 30.8 ± 1.88 µM. For the same compound, the IC50 in data set [3] (T84, 24 h) was 27.9 ± 1.96 µM. The viability at 24 h, 35 µM in [4] was greater than 90%. Also, in data set [5] (15 μM), the “early apoptosis rate (annexin V+/PI-, LR)” value (“early apoptosis rate” for short) stood at 6.96% and the “late apoptosis rate (annexin V+/PI+, UR)” value was determined as 4.27%. Further, the “late apoptosis rate (annexin V+/PI+, UR)” value in [5] (20 μM) was determined as 10.61%. For the same compound, in data set [5] (25 μM), the “early apoptosis rate” value was determined as 20.05% and the “late apoptosis rate (annexin V+/PI+, UR)” value came out at 14.30%. In data set [5] (30 μM), the “early apoptosis rate” value worked out at 23.69% and the “late apoptosis rate (annexin V+/PI+, UR)” value was 22.93%. Further, the “early apoptosis rate” value in [5] was 16.14%. In addition, in data set [5] (Homo sapiens, HepG2, 15 μM, read-out: viable cells (annexin V-/PI-, LL)), the viability at 15 µM is 88.7%. In addition, the viability at 20 µM in data set [5] (Homo sapiens, HepG2, 20 μM, read-out: viable cells (annexin V-/PI-, LL)) was determined as 72.9%. Besides, the viability at 25 µM in data set [5] (Homo sapiens, HepG2, 25 μM, read-out: viable cells (annexin V-/PI-, LL)) was determined as 64.8%. Besides, the viability at 30 µM in data set [5] (Homo sapiens, HepG2, 30 μM, read-out: viable cells (annexin V-/PI-, LL)) stood at 52%. This compound came in with an ROS level in data set [6] (15 μM) of 23.5%. For the same compound, the ROS level in data set [6] (30 μM) was 46.8%. The “ΔΨm reduced to, of control” value in data set [7] is given as 69.1%. Moreover, the “cytochrome c level in the cytosol” value in data set [8] was “gradually improved”. Moreover, the Bax level entry in data set [9] is reported as “significant increase”. Besides, in [10], the “expression of Bcl-2” value is given as “inhibition on the expression”. For the same compound, the “cleavage of caspase-9” value in [11] is “significantly induced cleavage”. Further, in data set [12], the “cleavage of caspase-3” value is listed as “significantly induced cleavage”. The “apoptotic cells by Hoechst 33258 staining” value in [13] was “apoptotic cells increased gradually in a dose-dependent manner”. Further, the “apoptosis by AO/EB staining” value in data set [14] is on record as “able to induce apoptosis”.
